# Experimental data published in US12558007B2 (priority 2016, dated 2026).
# Molecular target: acetylcholinesterase enzyme (Homo sapiens, UniProt P22303)
# Assay: Electrochemical sensor with acetylthiocholine reservoir in buffer containing acetylcholinesterase; inhibitor added, then sensor moved to fresh buffer
# Type: biochemical
# Details: 20 mM PBS, pH 7.4, 1 U/mL acetylcholinesterase, FIG. 13
# Experimental: In this example, a buffer was created to simulate endogenous cholinesterase activity in the interstitial fluid of a test subject. A sensor similar to that described in Example 6 was created with 100 nL of 1 M acetylthiocholine in the reactant reservoir. The sensor was placed in a buffer solution of 20 mM PBS, pH 7.4, and 1 U/mL of acetylcholinesterase enzyme to simulate a test subject. A reversible acetylcholinesterase inhibitor (Neostigmine Bromide) was then added to the buffer solution to simulate an organophosphate. The sensor was then removed from the buffer solution containing the inhibitor and placed in fresh buffer solution.
# acetylcholinesterase enzyme, sequence (P22303 32-614, species assumed): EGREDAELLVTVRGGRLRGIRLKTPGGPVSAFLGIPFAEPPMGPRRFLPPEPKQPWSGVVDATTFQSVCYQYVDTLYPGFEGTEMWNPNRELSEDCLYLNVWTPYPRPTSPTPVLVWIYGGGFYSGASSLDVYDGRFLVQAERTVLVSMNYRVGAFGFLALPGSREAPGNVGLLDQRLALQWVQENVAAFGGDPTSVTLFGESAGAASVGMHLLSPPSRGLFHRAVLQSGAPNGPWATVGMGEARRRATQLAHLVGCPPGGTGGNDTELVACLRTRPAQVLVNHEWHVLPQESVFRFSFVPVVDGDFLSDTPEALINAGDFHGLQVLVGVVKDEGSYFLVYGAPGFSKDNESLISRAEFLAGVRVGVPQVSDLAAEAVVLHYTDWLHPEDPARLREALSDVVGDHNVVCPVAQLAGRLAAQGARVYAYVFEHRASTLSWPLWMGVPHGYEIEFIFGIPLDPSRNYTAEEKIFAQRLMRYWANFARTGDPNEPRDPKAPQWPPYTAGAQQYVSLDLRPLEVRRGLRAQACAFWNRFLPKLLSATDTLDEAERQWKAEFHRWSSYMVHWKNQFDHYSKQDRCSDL
smiles,measurement,setting,value
CN(C)C(=O)Oc1cccc([N+](C)(C)C)c1 [Neostigmine Bromide],"sensor signal created by acetylcholinesterase interacting with acetylthiocholine, after addition of the inhibitor",100 nL of 1 M acetylthiocholine in reservoir,fell off after the addition of the inhibitor
same,sensor signal after sensor removed from inhibitor solution and placed in fresh buffer (reversibility),fresh buffer,the signal rebounded
